The data set is described as follows: Sensitivity to moisture of tetrazine compounds in polystyrene. Conditions: 0.2M in polystyrene film about 130 μm; relative humidity 93% at 25° C.; at least 42 days; absorbance 500-550 nm. It is filed as physicochemical. As for the experimental part: The depletion of the tetrazine compound, as measured by % absorbance change, was used to indicate the sensitivity to moisture of the tetrazine compounds.
Compositions were prepared by blending the tetrazine compounds at a concentration of 0.2M into polystyrene. Each composition was then compression moulded to form a film having a thickness of about 130 μm. Each film sample was then mounted in a cell holder and the maximum absorbance between 500-550 nm measured. The cell holders containing the film samples were then placed on a mesh platform in a 550 mL squat glass jar fitted with a screw cap and polypropylene wad seal. To achieve a relative humidity of 93% at 25° C., a saturated solution of potassium nitrate covered the bottom of the jars (approx. 10 mm below the mesh platform). The jars were stored in a controlled-temperature room at 25° C.
At intervals of several days for at least 42 days, samples were in turn removed from their jars, and the maximum absorbance recorded between 500-550 nm, before immediately returning them to the controlled-temperature room in their sealed jars.

Take `COC(=O)c1nnc(C(=O)OC)nn1` [DMTD, dimethyl-1,2,4,5-tetrazine-3,6-dicarboxylate, reference compound]: the “sensitivity to moisture (depletion of the tetrazine compound, as measured by % absorbance change)” value is reported as “highly unstable to moisture”.

For the origin of these results see patent US20060263502A1, “Absorbent material for use in humid conditions” (priority 2003, published 2006).
